Source: article PMC12704139, “(±)-Rutacycoumarins A and B: two pairs of unprecedented coumarin enantiomers from the aerial part of Ruta graveolens L. and chemically synthesized” (Pharmaceutical Biology, 2025)

Tests used:
human MAO-B (hMAO-B) = tested on: human MAO-B (hMAO-B); parameters: method as in Dhiman et al. [2018]; details: ref Dhiman et al. [2018], cited from earlier work
liver injury = tested on: liver injury; parameters: method as in He et al. [2024]; details: suppressing TNF-α/JAK1/STAT3 signaling while enhancing IL-4/IL-10 production; ref He et al. [2024]; cited from earlier work
hMAO-A = tested on: hMAO-A; parameters: method as in Seong et al. [2019]; details: ref Seong et al. [2019], cited from earlier work; for isoform selectivity (in words): hMAO-A versus hMAO-B
hMAO = tested on: hMAO; parameters: method as in Seong et al. [2019]; details: enzyme kinetic studies; ref Seong et al. [2019]; cited from earlier work
MAO = tested on: MAO; parameters: method as in Kozioł et al. [2020]; details: reference inhibitors at ∼3–5 μM; ref Kozioł et al. [2020]; cited from earlier work
recombinant human MAO-B = molecular target: T1, recombinant human MAO-B (Homo sapiens, UniProt P27338); experiment: Recombinant human MAO-B enzyme inhibition assay; assay type: biochemical
T1 construct: purchased Active Motif 31503
T1 sequence (P27338 1-520): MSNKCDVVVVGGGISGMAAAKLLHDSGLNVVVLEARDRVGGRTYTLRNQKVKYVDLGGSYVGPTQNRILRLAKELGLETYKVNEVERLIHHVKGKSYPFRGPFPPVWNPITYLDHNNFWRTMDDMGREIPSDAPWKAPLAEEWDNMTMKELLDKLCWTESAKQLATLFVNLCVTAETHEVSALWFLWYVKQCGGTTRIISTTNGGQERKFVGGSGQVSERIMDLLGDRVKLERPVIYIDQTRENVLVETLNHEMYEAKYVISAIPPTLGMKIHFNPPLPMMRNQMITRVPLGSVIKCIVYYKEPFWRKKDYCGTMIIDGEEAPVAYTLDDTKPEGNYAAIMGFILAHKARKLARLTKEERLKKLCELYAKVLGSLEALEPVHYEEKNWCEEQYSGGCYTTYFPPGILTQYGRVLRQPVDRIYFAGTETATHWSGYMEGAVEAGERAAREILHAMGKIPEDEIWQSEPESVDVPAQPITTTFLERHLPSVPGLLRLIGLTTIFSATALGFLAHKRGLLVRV
Experimental: All compounds were tested with technical replicates. Compounds (100× final concentration) in 384-well source plates were dispensed (200 nL per well) into assay plates. Min/Max control wells received 200 µL of 100% DMSO. All wells except the Min controls were supplemented with 10 μL of 10 nM MAO-B (Min controls received buffer instead). Plates were centrifuged at 1000 × g for 1 min and incubated at 25 °C for 15 min. Then, 10 μL of 0.5 μM substrate was added to each well. After further centrifugation, the plates were protected from light and incubated for 60 min. The reaction was terminated by adding 20 μL of stop solution, followed by centrifugation and a 20-min equilibration period. Fluorescence was measured using an EnVision microplate reader. The inhibition percentage was calculated as follows: Inhibition (%) = [signal (max)− signal (sample)]/[signal (max) − signal (min)] × 100. Dose–response curves were generated by plotting the logarithm of compound concentration (X-axis) against the percentage inhibition (Y-axis). Curve fitting was performed in GraphPad Prism 8 using the ‘log(inhibitor) vs. response -Variable slope’ model to determine the IC50 values for MAO-B inhibition.

LPS-induced HepG2 cells [1] = experiment: ALT and AST in supernatant of LPS-induced HepG2 cells; assay type: cell-based, Homo sapiens; details: HepG2, 100 ng/mL LPS, compounds 10, 20, 40 μM; p < 0.01 vs. model
Experimental: (§1) An LPS-induced hepatocyte injury model was established in HepG2 cells by treatment with 100 ng/mL LPS, using silymarin as a positive control. After treatment with test compounds at concentrations of 10, 20, and 40 μM, the cell culture supernatant was collected and centrifuged at 1000 × g for 15 min at 4 °C. The levels of alanine aminotransferase (ALT) and aspartate aminotransferase (AST) in the supernatant were quantified using commercial assay kits according to the manufacturer’s instructions. Absorbance was measured at 510 nm using a microplate reader, and results are expressed in units per liter (U/L). Additionally, the concentrations of interleukin-4 (IL-4), interleukin-10 (IL-10), and tumor necrosis factor-α (TNF-α) in the supernatant were determined by enzyme-linked immunosorbent assay (ELISA) using corresponding commercial kits. All procedures were performed in strict accordance with the manufacturer’s protocols. Cytokine levels are reported in picograms per milliliter (pg/mL), as calculated from the respective standard curves.
Silymarin was used as a positive control. The supernatant of HepG2 cells was collected from different experimental groups and separated by centrifugation (4 °C, 1000 rpm, 15 minutes). The levels of ALT and AST in the supernatant were determined following the manufacturer's instructions provided with the commercial assay kits. The optical density (OD) values of each well were measured at a wavelength of 510 nm using a microplate reader. These values are expressed in units per liter (U/L) or millimoles per liter (mmol/L).

LPS-induced HepG2 cells [2] = experiment: IL-4, IL-10 and TNF-α in supernatant of LPS-induced HepG2 cells (ELISA); assay type: cell-based, Homo sapiens; details: for LPS-induced inflammatory response (pro-inflammatory cytokines): HepG2, LPS
Experimental: as §1
The cell culture supernatant was collected and separated by centrifugation at 4°C and 1000 rpm for 15 minutes. Levels of IL-4, IL-10, and TNF-α in the supernatant were determined using enzyme-linked immunosorbent assay (ELISA), strictly following the manufacturer’s protocols provided with the corresponding commercial ELISA kits. These values were quantified in picograms per milliliter (pg/mL) based on the standard curves generated.

hMAO-B = tested on: hMAO-B; parameters: method as in Seong et al. [2019]; details: ref Seong et al. [2019]; cited from earlier work
human MAO-B = tested on: human MAO-B; parameters: method as in Kozioł et al. [2020]; details: 6.17 μM; ref Kozioł et al. [2020]; cited from earlier work
MAO-A = tested on: MAO-A; parameters: method as in Kozioł et al. [2020]; details: 6.17 μM; ref Kozioł et al. [2020]; cited from earlier work
[3] = HepG2 supernatant, LPS, 10–40 μM, ELISA

## O=C(Oc1ccc2ccc(=O)oc2c1)C(O)c1ccccc1 (stereo not shown) [2-oxo-2H-chromen-7-yl 2-hydroxy-2-phenylacetate]
Human MAO-B (hMAO-B); hMAO-B
  selectivity index: 8.55
Human MAO-B (hMAO-B)
  IC50: 10.32 ± 0.044 µM

## Cn1c(-c2ccc3c(c2)OCO3)cc(=O)c2ccccc21 [graveoline]
Liver injury
  hepatoprotective effect: attenuates liver injury

## O=c1ccc2cc(O)c(O)cc2o1 [esculetin]
hMAO-A
  isoform selectivity (in words): selectivity for hMAO-A versus hMAO-B

## O=Cc1c(O)ccc2ccc(=O)oc12 [8-formyl umbelliferone]
hMAO-A
  isoform selectivity (in words): selectivity for hMAO-A versus hMAO-B
hMAO
  mode of hMAO inhibition: competitive

## C#CCN(C)[C@H](C)Cc1ccccc1 [selegiline]
MAO
  MAO inhibition: > 99%

## C#CCN(C)CCCOc1ccc(Cl)cc1Cl [clorgyline]
MAO
  MAO inhibition: > 99%

## CC1(C)CC1c1cc2ccc(O)cc2oc1=O (racemic) [(±)-1, (±)-Rutacycoumarin A]
Recombinant human MAO-B
  MAO-B inhibition (in words): potently inhibited
LPS-induced HepG2 cells [1]
  LPS-elevated ALT level: significant suppression
  LPS-elevated AST level: significant suppression
LPS-induced HepG2 cells [2]
  LPS-induced inflammatory response (pro-inflammatory cytokines): significant suppression

## O=Cc1cc2ccc(=O)oc2cc1O [6-formyl umbelliferone]
hMAO-A
  isoform selectivity (in words): selectivity for hMAO-A versus hMAO-B
  IC50: 3.23 µM
hMAO-B
  IC50: 15.3 µM
hMAO
  mode of hMAO inhibition: competitive

## COc1cc2ccc(=O)oc2cc1O [scopoletin]
hMAO-A
  isoform selectivity (in words): selectivity for hMAO-A versus hMAO-B

## COc1cc2cc(C3CC3(C)C)c(=O)oc2cc1O (racemic) [(±)-2, (±)-Rutacycoumarin B]
Recombinant human MAO-B
  MAO-B inhibition (in words): potently inhibited
LPS-induced HepG2 cells [1]
  LPS-elevated ALT level: significant suppression
  LPS-elevated AST level: significant suppression
LPS-induced HepG2 cells [2]
  LPS-induced inflammatory response (pro-inflammatory cytokines): significant suppression
LPS-induced HepG2 cells [2]; [3]
  IL-4 level: dose-dependently restored
  IL-10 level: dose-dependently restored
  TNF-α expression: suppressed

## O=C(O)c1cc2ccc(=O)oc2cc1O [umbelliferone-6-carboxylic acid]
hMAO-A
  isoform selectivity (in words): selectivity for hMAO-A versus hMAO-B

## O=c1ccc2ccc(O)cc2o1 [umbelliferone]
hMAO-A
  isoform selectivity (in words): selectivity for hMAO-A versus hMAO-B

## C=CC(C)(C)c1cc2cc3c(cc2oc1=O)OC(C(C)(C)OC(C)=O)C3 (stereo not shown) [rutamarin]
Human MAO-B
  inhibition rate of human MAO-B: 95.26%
MAO-A
  inhibition of MAO-A: 25.15%
